Laboratory results: patent publication US20240368106A1, “HYDROXY AND ALKOXY COUMARINS AS MODULATORS OF POLRMT” (Pretzel Therapeutics, Inc., priority 2021, published 2024)

Target: POLRMT (Homo sapiens (Human), UniProt O00411)
Assay: homogeneous TR-FRET assay of mitochondrial transcription (inhibition of POLRMT)
Type: biochemical
Conditions: 7.5 nM POLRMT, 15 nM TFB2M, 30 nM TFAM, 0.5 nM DNA template, 500 μM NTPs, 37° C., 60 minutes
Procedure, shortened: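 Human POLRMT (7.5 nM) with TFB2M (15 nM), TFAM (30 nM), 0.5 nM linearized LSP plasmid template and 500 μM NTPs in pH 7.5 Tris/MgCl2 buffer, 60 min at 37 °C. Stopped with EDTA/high-salt; 407 bp transcript detected by hybridized Europium/ATTO647N probes. 665/620 nm ratio gives activity.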

Sequence of POLRMT (O00411 42-1230): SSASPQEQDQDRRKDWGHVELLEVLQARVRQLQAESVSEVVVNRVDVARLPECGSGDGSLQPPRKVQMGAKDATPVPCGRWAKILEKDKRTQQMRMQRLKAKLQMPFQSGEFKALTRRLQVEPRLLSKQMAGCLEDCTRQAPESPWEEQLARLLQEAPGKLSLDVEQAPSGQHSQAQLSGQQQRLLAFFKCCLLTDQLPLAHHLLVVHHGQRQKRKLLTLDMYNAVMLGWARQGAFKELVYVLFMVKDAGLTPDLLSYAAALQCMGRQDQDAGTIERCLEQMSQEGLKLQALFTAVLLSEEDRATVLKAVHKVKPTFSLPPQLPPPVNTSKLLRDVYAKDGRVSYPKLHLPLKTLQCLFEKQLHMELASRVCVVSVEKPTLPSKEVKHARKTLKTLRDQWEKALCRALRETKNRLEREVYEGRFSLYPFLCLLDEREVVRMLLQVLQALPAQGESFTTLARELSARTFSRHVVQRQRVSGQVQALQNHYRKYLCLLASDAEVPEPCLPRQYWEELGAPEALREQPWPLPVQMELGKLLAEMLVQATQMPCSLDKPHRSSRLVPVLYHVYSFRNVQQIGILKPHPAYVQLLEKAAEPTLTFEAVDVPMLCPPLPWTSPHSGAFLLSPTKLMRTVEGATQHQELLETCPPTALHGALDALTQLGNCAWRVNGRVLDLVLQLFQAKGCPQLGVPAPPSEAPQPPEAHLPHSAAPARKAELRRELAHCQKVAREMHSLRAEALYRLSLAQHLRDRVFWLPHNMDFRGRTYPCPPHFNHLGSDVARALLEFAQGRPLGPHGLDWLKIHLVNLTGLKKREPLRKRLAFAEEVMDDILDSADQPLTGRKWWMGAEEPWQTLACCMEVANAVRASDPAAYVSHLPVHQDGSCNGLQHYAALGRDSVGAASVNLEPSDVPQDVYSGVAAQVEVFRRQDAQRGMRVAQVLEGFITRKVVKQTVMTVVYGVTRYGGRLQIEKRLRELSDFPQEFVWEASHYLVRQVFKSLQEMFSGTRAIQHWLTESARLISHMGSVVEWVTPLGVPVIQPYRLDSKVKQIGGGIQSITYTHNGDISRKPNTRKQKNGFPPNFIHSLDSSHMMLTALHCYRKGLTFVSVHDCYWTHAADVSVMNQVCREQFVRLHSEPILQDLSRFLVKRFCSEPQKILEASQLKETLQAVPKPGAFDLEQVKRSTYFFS

| Compound | IC50 [nM] |
| --- | --- |
| Cc1ccccc1-c1cc(=O)oc2cc(OC(C)C(F)(F)F)ccc12 (centres unmarked) [Example 109, 4-(o-tolyl)-7-((1,1,1-trifluoropropan-2-yl)oxy)-2H-chromen-2-one] | 300 |
| Cc1ccccc1-c1cc(=O)oc2cc(O[C@H](C)C(=O)N3CCS(=O)(=O)CC3)ccc12 [Example 111, (R)-7-((1-(1,1-dioxidothiomorpholino)-1-oxopropan-2-yl)oxy)-4-(o-tolyl)-2H-chromen-2-one] | 200 |

More lines, now with the values ahead:

| IC50 [nM] | Compound |
| --- | --- |
| 500 | C[C@@H](Oc1ccc2c(-c3ccc(F)cc3Cl)cc(=O)oc2c1)C(=O)N1CCS(=O)(=O)CC1 [Example 110, (R)-4-(2-chloro-4-fluorophenyl)-7-((1-(1,1-dioxidothiomorpholino)-1-oxopropan-2-yl)oxy)-2H-chromen-2-one] |
| 65000 | Cc1cccc(C)c1-c1cc(=O)oc2cc(O[C@H](C)C(=O)N3CCS(=O)(=O)CC3)ccc12 [Example 112, (R)-4-(2,6-dimethylphenyl)-7-((1-(1,1-dioxidothiomorpholino)-1-oxopropan-2-yl)oxy)-2H-chromen-2-one] |
| 4000 | CCCOc1ccc2c(-c3ccccc3)cc(=O)oc2c1 [Example 113, 4-phenyl-7-propoxy-2H-chromen-2-one] |
